Assay results taken from patent US8716303B2, “N-(hetero)aryl-pyrrolidine derivatives of pyrazol-4-yl-pyrrolo[2,3-d]pyrimidines and pyrrol-3-yl-pyrrolo[2,3-d]pyrimidines as janus kinase inhibitors” (Incyte Corporation, priority 2009, dated 2014).
Counter-ions that a name gives are not always drawn.

Key:
[1] = biological target: T1, human JAK1 (a.a. 837-1142) (Homo sapiens, UniProt P23458); assay: In vitro JAK kinase assay (HTRF, phosphorylation of a biotinylated peptide), JAK1; type: biochemical
T1 construct: human JAK1 (a.a. 837-1142); His tag (N); made in house; host or cells: insect cells (baculovirus)
T1 sequence (P23458 849-1154): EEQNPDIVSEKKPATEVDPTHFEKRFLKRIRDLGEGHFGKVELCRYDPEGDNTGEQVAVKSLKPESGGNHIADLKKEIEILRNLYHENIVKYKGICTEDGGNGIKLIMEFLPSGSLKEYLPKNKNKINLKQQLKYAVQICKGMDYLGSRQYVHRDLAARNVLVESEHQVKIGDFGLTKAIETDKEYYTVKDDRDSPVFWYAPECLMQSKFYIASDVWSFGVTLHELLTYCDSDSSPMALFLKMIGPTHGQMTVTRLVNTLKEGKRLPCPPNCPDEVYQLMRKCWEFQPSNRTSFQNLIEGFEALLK
How it was run: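 IC50s come from HTRF detection (Eu-Py20, SA-APC, 40 min binding) after 1 h RT reactions with 500 nM biotinylated peptide in Tris pH 7.8 buffer. ATP either 1 mM or Km-level, 90 μM for JAK1 and 30 μM for JAK2; enzymes are baculovirus-expressed His-tagged catalytic domains (JAK1 837-1142, JAK2 828-1132).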

Jak2 (a.a. 828-1132) = biological target: T2, Jak2 (a.a. 828-1132) (Homo sapiens, UniProt O60674); assay: In vitro JAK kinase assay (HTRF, phosphorylation of a biotinylated peptide), JAK2, reported as JAK2/JAK1 ratio; type: biochemical
T2 construct: Jak2 (a.a. 828-1132); His tag (N); made in house; host or cells: insect cells (baculovirus)
T2 sequence (O60674 828-1132): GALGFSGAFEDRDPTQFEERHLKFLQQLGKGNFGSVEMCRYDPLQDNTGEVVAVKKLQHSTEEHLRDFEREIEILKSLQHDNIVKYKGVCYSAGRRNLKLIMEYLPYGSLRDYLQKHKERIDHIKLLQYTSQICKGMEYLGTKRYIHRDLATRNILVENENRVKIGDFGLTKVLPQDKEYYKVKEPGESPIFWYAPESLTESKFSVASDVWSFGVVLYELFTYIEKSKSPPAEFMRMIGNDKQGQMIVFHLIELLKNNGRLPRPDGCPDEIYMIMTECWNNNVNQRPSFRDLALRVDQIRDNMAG

[2] = Assay Conditions Km (ATP 90 μM for Jak1)
[3] = Assay Conditions Km (ATP 90 μM for Jak1, 30 μM for Jak2)

IC50 ([1]; Assay Conditions 1 mM ATP)	JAK2/JAK1 IC50 ratio (Jak2 (a.a. 828-1132); Assay Conditions 1 mM ATP)	IC50 [1, 2]	JAK2/JAK1 IC50 ratio (Jak2 (a.a. 828-1132); [3])	SMILES
0.1 to 0.5 µM	0.8			N#CCC(n1cc(-c2ncnc3[nH]ccc23)cn1)C1(F)CCN(c2nc3cccnc3o2)C1 (single isomer, unassigned) [31, Step 4b, enantiomer 2]
< 0.05 µM	32.1			N#CC[C@@H]([C@H]1CCN(c2scc(Cl)c2C#N)C1)n1cc(-c2ncnc3[nH]ccc23)cn1 [Example 78, 4-chloro-2-((3S)-3-{(1S)-2-cyano-1-[4-(7H-pyrrolo[2,3-d]pyrimidin-4-yl)-1H-pyrazol-1-yl]ethyl}pyrrolidin-1-yl)thiophene-3-carbonitrile]
< 0.05 µM	4.8			N#CC[C@@H]([C@H]1CCN(c2ncc(C#N)cc2F)C1)n1cc(-c2ncnc3[nH]ccc23)cn1 [Example 107, 6-((S)-3-((S)-1-(4-(7H-pyrrolo[2,3-d]pyrimidin-4-yl)-1H-pyrazol-1-yl)-2-cyanoethyl)pyrrolidin-1-yl)-5-fluoronicotinonitrile trifluoroacetate salt]
< 0.05 µM	5.6			N#CCC(C1CCN(c2ccc3c(n2)S(=O)(=O)CC3)C1)n1ccc(-c2ncnc3[nH]ccc23)c1 (single isomer, unassigned) [34, enantiomer 1]
< 0.05 µM	11.4			N#CCC(C1CCN(c2ncc3cc[nH]c3n2)C1)n1cc(-c2ncnc3[nH]ccc23)cn1 (single isomer, unassigned) [Example 16, 3-[4-(7H-pyrrolo[2,3-d]pyrimidin-4-yl)-1H-pyrazol-1-yl]-3-[1-(7H-pyrrolo[2,3-d]pyrimidin-2-yl)pyrrolidin-3-yl]propanenitrile]
< 0.05 µM	>9.1			COc1ncnc(N2CC[C@H]([C@H](CC#N)n3cc(-c4ncnc5[nH]ccc45)cn3)C2)c1C#N [Example 98, 4-((S)-3-((S)-1-(4-(7H-pyrrolo[2,3-d]pyrimidin-4-yl)-1H-pyrazol-1-yl) 2-cyanoethyl)pyrrolidin-1-yl)-6-methoxypyrimidine-5-carbonitrile trifluoroacetate]
< 0.05 µM	2.5			C[S+]([O-])c1nccc(N2CCC(C(CC#N)n3cc(-c4ncnc5[nH]ccc45)cn3)C2)n1 (single isomer, unassigned) [Example 24, 3-{1-[2-(methylsulfinyl)pyrimidin-4-yl]pyrrolidin-3-yl}-3-[4-(7H-pyrrolo[2,3-d]pyrimidin-4-yl)-1H-pyrazol-1-yl]propanenitrile]
		< 0.05 µM	1.9	N#CCC(C1CCN(c2nc3ccccc3o2)C1)n1cc(-c2ncnc3[nH]ccc23)cn1 (single isomer, unassigned) [9, Step 3a]
< 0.05 µM	24.7			N#CCC(C1CCN(c2nc3cccc(O)c3o2)C1)n1cc(-c2ncnc3[nH]ccc23)cn1 (single isomer, unassigned) [Example 161, 3-[1-(7-hydroxy-1,3-benzoxazol-2-yl)pyrrolidin-3-yl]-3-[4-(7H-pyrrolo[2,3-d]pyrimidin-4-yl)-1H-pyrazol-1-yl]propanenitrile]
< 0.05 µM	12.9			N#CCC(C1CCN(c2nc3cccc(Br)c3o2)C1)n1cc(-c2ncnc3[nH]ccc23)cn1.O=C(O)C(F)(F)F (single isomer, unassigned) [Example 159, 3-[1-(7-bromo-1,3-benzoxazol-2-yl)pyrrolidin-3-yl]-3-[4-(7H-pyrrolo[2,3-d]pyrimidin-4-yl)-1H-pyrazol-1-yl]propanenitrile trifluoracetate]
< 0.05 µM	>27.3			N#CCC(C1CCN(c2ncc3c(c2C#N)SCC3)C1)n1cc(-c2ncnc3[nH]ccc23)cn1 (single isomer, unassigned) [Example 173, 6-(3-{2-cyano-1-[4-(7H-pyrrolo[2,3-d]pyrimidin-4-yl)-1H-pyrazol-1-yl]ethyl}pyrrolidin-1-yl)-2,3-dihydrothieno[3,2-c]pyridine-7-carbonitrile]
< 0.05 µM	16.3			COCc1ccnc(N2CC[C@H]([C@H](CC#N)n3cc(-c4ncnc5[nH]ccc45)cn3)C2)c1C#N [Example 96, 2-((3S)-3-{(1S)-2-cyano-1-[4-(7H-pyrrolo[2,3-d]pyrimidin-4-yl)-1H-pyrazol-1-yl]ethyl}pyrrolidin-1-yl)-4-(methoxymethyl)nicotinonitrile tris(trifluoroacetate)]
		< 0.05 µM	5.7	N#CCC(C1CCN(c2nc3cccnc3o2)C1)n1ccc(-c2ncnc3[nH]ccc23)c1 (single isomer, unassigned) [32, Step 2a, enantiomer 2]
< 0.05 µM	4.2			N#CCC(C1CCN(c2ccc3c(n2)[S+]([O-])CC3)C1)n1ccc(-c2ncnc3[nH]ccc23)c1 (stereo not shown) [Example 35, 3-[1-(1-oxido-2,3-dihydrothieno[2,3-b]pyridin-6-yl)pyrrolidin-3-yl]-3-[3-(7H-pyrrolo[2,3-d]pyrimidin-4-yl)-1H-pyrrol-1-yl]propanenitrile]
		< 0.05 µM	6.0	N#CCC(C1CCN(c2ccc3cccc(Cl)c3n2)C1)n1cc(-c2ncnc3[nH]ccc23)cn1 (racemic) [Example 42, ±3-[1-(8-chloroquinolin-2-yl)pyrrolidin-3-yl]-3-[4-(7H-pyrrolo[2,3-d]pyrimidin-4-yl)-1H-pyrazol-1-yl]propanenitrile]
< 0.05 µM	14.8			CS(=O)(=O)c1nc(N2CC[C@H]([C@H](CC#N)n3cc(-c4ncnc5[nH]ccc45)cn3)C2)c(F)cc1F [Example 130, (3S)-3-{(3S)-1-[3,5-difluoro-6-(methylsulfonyl)pyridin-2-yl]pyrrolidin-3-yl}-3-[4-(7H-pyrrolo[2,3-d]pyrimidin-4-yl)-1H-pyrazol-1-yl]propanenitrile trifluoroacetate]
< 0.05 µM	3.7			N#Cc1ncccc1N1CC[C@H](C(CF)n2cc(-c3ncnc4[nH]ccc34)cn2)C1 (stereo partly drawn) [Example 117, 3-((3S)-3-{2-fluoro-1-[4-(7H-pyrrolo[2,3-d]pyrimidin-4-yl)-1H-pyrazol-1-yl]ethyl}pyrrolidin-1-yl)pyridine-2-carbonitrile trifluoroacetate]
< 0.05 µM	31.8			N#CCC(C1CCN(c2nc3cccc(F)c3o2)C1)n1cc(-c2ncnc3[nH]ccc23)cn1 (single isomer, unassigned) [Example 21, 3-[1-(7-fluoro-1,3-benzoxazol-2-yl)pyrrolidin-3-yl]-3-[4-(7H-pyrrolo[2,3-d]pyrimidin-4-yl)-1H-pyrazol-1-yl]propanenitrile]
< 0.05 µM	14.2			N#CC[C@@H]([C@H]1CCN(c2ncc(Br)nc2C#N)C1)n1cc(-c2ncnc3[nH]ccc23)cn1 [Example 142, 6-bromo-3-(3S)-3-{(1S)-2-cyano-1-[4-(7H-pyrrolo[2,3-d]pyrimidin-4-yl)-1H-pyrazol-1-yl]ethyl}pyrrolidin-1-yl)pyrazine-2-carbonitrile trifluoroacetate]
< 0.05 µM	2			N#CCC(C1CCN(c2ccccc2C#N)C1)n1cc(-c2ncnc3[nH]ccc23)cn1 (stereo not shown) [Example 52, 2-(3-{2-cyano-1-[4-(7H-pyrrolo[2,3-d]pyrimidin-4-yl)-1H-pyrazol-1-yl]ethyl}pyrrolidin-1-yl)benzonitrile trifluoroacetate salt]
